Data: ChEMBL document CHEMBL3044692, “Biological activity of alpha-thujaplicin, the isomer of hinokitiol” (Biol Pharm Bull, 2004)
In brackets after ≈: the same amount, converted by molar mass.

Columns and labels:
Reticulitermes speratus [1] = assay: Insecticidal activity against Reticulitermes speratus at 48 hr; assay type: functional
Dermatophagoides farinae [2] = assay: Acaricidal activity against Dermatophagoides farinae assessed as mortality at 0.02 g/m'2 after 24 hr relative to control; assay type: functional
Dermatophagoides farinae [3] = assay: Acaricidal activity against Dermatophagoides farinae assessed as mortality at 0.05 g/m'2 after 24 hr relative to control; assay type: functional
Dermatophagoides farinae [4] = assay: Acaricidal activity against Dermatophagoides farinae assessed as mortality at 0.01 g/m'2 after 24 hr relative to control; assay type: functional
Dermatophagoides farinae [5] = assay: Acaricidal activity against Dermatophagoides farinae assessed as mortality at 0.1 g/m'2 after 24 hr relative to control; assay type: functional
Dermatophagoides farinae [6] = assay: Acaricidal activity against Dermatophagoides farinae assessed as mortality at 1 g/m'2 after 24 hr relative to control; assay type: functional
Reticulitermes speratus [7] = assay: Insecticidal activity against Reticulitermes speratus assessed as mortality at 0.01 g/m'2 at 48 hr relative to control; assay type: functional
Reticulitermes speratus [8] = assay: Insecticidal activity against Reticulitermes speratus assessed as mortality at 0.02 g/m'2 at 48 hr relative to control; assay type: functional
Reticulitermes speratus [9] = assay: Insecticidal activity against Reticulitermes speratus assessed as mortality at 0.01 g/m'2 at 24 hr relative to control; assay type: functional
Reticulitermes speratus [10] = assay: Insecticidal activity against Reticulitermes speratus assessed as mortality at 0.02 g/m'2 at 24 hr relative to control; assay type: functional
Reticulitermes speratus [11] = assay: Insecticidal activity against Reticulitermes speratus assessed as mortality at 0.03 g/m'2 at 48 hr relative to control; assay type: functional
Reticulitermes speratus [12] = assay: Insecticidal activity against Reticulitermes speratus assessed as mortality at 0.03 g/m'2 at 24 hr relative to control; assay type: functional
Reticulitermes speratus [13] = assay: Insecticidal activity against Reticulitermes speratus assessed as mortality at 0.04 g/m'2 at 24 hr relative to control; assay type: functional
Reticulitermes speratus [14] = assay: Insecticidal activity against Reticulitermes speratus assessed as mortality at 0.04 g/m'2 at 48 hr relative to control; assay type: functional
Reticulitermes speratus [15] = assay: Insecticidal activity against Reticulitermes speratus assessed as mortality at 0.05 g/m'2 at 48 hr relative to control; assay type: functional
Reticulitermes speratus [16] = assay: Insecticidal activity against Reticulitermes speratus assessed as mortality at 0.1 g/m'2 at 48 hr relative to control; assay type: functional
Reticulitermes speratus [17] = assay: Insecticidal activity against Reticulitermes speratus assessed as mortality at 0.05 g/m'2 at 24 hr relative to control; assay type: functional
Reticulitermes speratus [18] = assay: Insecticidal activity against Reticulitermes speratus assessed as mortality at 0.1 g/m'2 at 24 hr relative to control; assay type: functional
Legionella pneumophila [19] = assay: Antibacterial activity against Legionella pneumophila SG 3 after 7 days by agar dilution method; assay type: functional; conditions: SG 3, 168 h
Legionella pneumophila [20] = assay: Antibacterial activity against Legionella pneumophila SG 1 after 7 days by agar dilution method; assay type: functional; conditions: SG 1, 168 h
[21] = tested on: Colletotrichum orbiculare; assay: Antifungal activity against Colletotrichum orbiculare MAFF 306518 after 15 days by agar dilution method; assay type: functional; conditions: MAFF 306518, 360 h
Colletotrichum lagenaria = assay: Antifungal activity against Colletotrichum lagenaria after 15 days by agar dilution method; assay type: functional; conditions: 360 h
Phomopsis obscurans = assay: Antifungal activity against Phomopsis obscurans MAFF 744018 after 15 days by agar dilution method; assay type: functional; conditions: Paraphomopsis obscurans, MAFF 744018, 360 h
Botrytis cinerea = assay: Antifungal activity against Botryotinia fuckeliana IFO 30915 after 15 days by agar dilution method; assay type: functional; conditions: IFO 30915, 360 h
Fusarium solani = assay: Antifungal activity against Fusarium solani IFO 9955 after 15 days by agar dilution method; assay type: functional; conditions: IFO 9955, 360 h
Pythium aphanidermatum = assay: Antifungal activity against Pythium aphanidermatum IFO 32440 after 15 days by agar dilution method; assay type: functional; conditions: IFO 32440, 360 h
Thanatephorus cucumeris = assay: Antifungal activity against Thanatephorus cucumeris IFO 30455 after 15 days by agar dilution method; assay type: functional; conditions: IFO 30455, 360 h
[22] = Cytotoxicity against Homo sapiens (human) KATO III; assay type: functional
HL-60 = assay: Cytotoxicity against Homo sapiens (human) HL60; assay type: functional, cell-based
K562 = assay: Cytotoxicity against Homo sapiens (human) K562; assay type: functional, cell-based
[23] = Cytotoxicity against Mus musculus (mouse) RL male 1; assay type: functional
[24] = Cytotoxicity against Mus musculus (mouse) MH134; assay type: functional
MDCK = assay: Cytotoxicity against MDCK cells; assay type: functional; conditions: Canis lupus familiaris
Colon 26 = assay: Cytotoxicity against Mus musculus (mouse) colon 26 cells; assay type: functional
Reticulitermes speratus [25] = assay: Insecticidal activity against Reticulitermes speratus assessed as mortality at 0.00025 g/m'2 at 48 hr relative to control; assay type: functional
Reticulitermes speratus [26] = assay: Insecticidal activity against Reticulitermes speratus assessed as mortality at 0.00025 g/m'2 at 24 hr relative to control; assay type: functional
Reticulitermes speratus [27] = assay: Insecticidal activity against Reticulitermes speratus assessed as mortality at 0.00001 g/m'2 at 24 hr relative to control; assay type: functional
Reticulitermes speratus [28] = assay: Insecticidal activity against Reticulitermes speratus assessed as mortality at 0.00005 g/m'2 at 24 hr relative to control; assay type: functional
Reticulitermes speratus [29] = assay: Insecticidal activity against Reticulitermes speratus assessed as mortality at 0.00005 g/m'2 at 48 hr relative to control; assay type: functional
Reticulitermes speratus [30] = assay: Insecticidal activity against Reticulitermes speratus assessed as mortality at 0.00010 g/m'2 at 48 hr relative to control; assay type: functional
Reticulitermes speratus [31] = assay: Insecticidal activity against Reticulitermes speratus assessed as mortality at 0.00010 g/m'2 at 24 hr relative to control; assay type: functional
Reticulitermes speratus [32] = assay: Insecticidal activity against Reticulitermes speratus assessed as mortality at 0.00050 g/m'2 at 48 hr relative to control; assay type: functional
Reticulitermes speratus [33] = assay: Insecticidal activity against Reticulitermes speratus assessed as mortality at 0.00050 g/m'2 at 24 hr relative to control; assay type: functional

CC(C)c1cccc(=O)c(O)c1 [HINOKITIOL]
LC50 (Reticulitermes speratus [1]): 0.03 g/m2
mortality (Dermatophagoides farinae [2]): 2.6%
mortality (Dermatophagoides farinae [3]): 11.9%
mortality (Dermatophagoides farinae [4]): 0%
mortality (Dermatophagoides farinae [5]): 99%
mortality (Dermatophagoides farinae [6]): 100%
mortality (Reticulitermes speratus [7]): 0%
mortality (Reticulitermes speratus [8]): 0%
mortality (Reticulitermes speratus [9]): 0%
mortality (Reticulitermes speratus [10]): 0%
mortality (Reticulitermes speratus [11]): 100%
mortality (Reticulitermes speratus [12]): 13.3%
mortality (Reticulitermes speratus [13]): 100%
mortality (Reticulitermes speratus [14]): 100%
mortality (Reticulitermes speratus [15]): 100%
mortality (Reticulitermes speratus [16]): 100%
mortality (Reticulitermes speratus [17]): 100%
mortality (Reticulitermes speratus [18]): 100%
MIC (Legionella pneumophila [19]): 25 µg/mL (≈ 152 µM)
MIC (Legionella pneumophila [20]): 6.25 µg/mL (≈ 38.1 µM)
MIC [21]: 25 µg/mL (≈ 152 µM)
MIC (Colletotrichum lagenaria): 25 µg/mL (≈ 152 µM)
MIC (Phomopsis obscurans): 12 µg/mL (≈ 73.1 µM)
MIC (Botrytis cinerea): 50 µg/mL (≈ 304 µM)
MIC (Fusarium solani): 50 µg/mL (≈ 304 µM)
MIC (Pythium aphanidermatum): 12 µg/mL (≈ 73.1 µM)
MIC (Thanatephorus cucumeris): 12 µg/mL (≈ 73.1 µM)
IC50 [22]: 0.3 µg/mL (≈ 1.83 µM)
IC50 (HL-60): 0.3 µg/mL (≈ 1.83 µM)
IC50 (K562): 0.3 µg/mL (≈ 1.83 µM)
IC50 [23]: 0.3 µg/mL (≈ 1.83 µM)
IC50 [24]: 0.3 µg/mL (≈ 1.83 µM)
MIC (MDCK): 10 µg/mL (≈ 60.9 µM)
MIC (Colon 26): 10 µg/mL (≈ 60.9 µM)

CCOP(=S)(OCC)Oc1nc(Cl)c(Cl)cc1Cl [CHLORPYRIFOS]
mortality (Reticulitermes speratus [25]): 100%
mortality (Reticulitermes speratus [26]): 60%
LC50 (Reticulitermes speratus [1]): 0.00016 g/m2
mortality (Reticulitermes speratus [27]): 0%
mortality (Reticulitermes speratus [28]): 10%
mortality (Reticulitermes speratus [29]): 40%
mortality (Reticulitermes speratus [30]): 75%
mortality (Reticulitermes speratus [31]): 25%
mortality (Reticulitermes speratus [32]): 100%
mortality (Reticulitermes speratus [33]): 100%

O=c1cccccc1O [TROPOLONE]
IC50 [22]: 0.3 µg/mL (≈ 2.46 µM)
IC50 (HL-60): 0.3 µg/mL (≈ 2.46 µM)
IC50 (K562): 0.3 µg/mL (≈ 2.46 µM)
IC50 [23]: 0.3 µg/mL (≈ 2.46 µM)
IC50 [24]: 0.3 µg/mL (≈ 2.46 µM)
